The results in this text go back to patent publication US20190040025A1, “INDOLEAMINE 2,3-DIOXYGENASE INHIBITOR, PREPARATION METHOD THEREFOR, AND APPLICATION” (Jiangsu Hansoh Pharmaceutical Group Co., Ltd., priority 2016, published 2019).

Experiment [1] has as its system mouse rectal cancer cell line Colon26. The experiment is described as follows: Anti-tumor effect in Colon26 tumor-bearing mouse model. The note with it: Colon26 tumor-bearing mice. The format is in vivo, mouse (Balb/c). From the text:
The present invention further used the Colon26 tumor-bearing mouse model to test the anti-tumor effect of the example compounds. The Colon26 tumor-bearing mouse model was the mouse rectal cancer cell line Colon26 purchased from Guangzhou Ginio Biological Technology Co., Ltd., and the culture medium used was RPMI1640 containing 10% fetal bovine serum. The mouse strain used for tumor-bearing was Balb/c purchased from Sino-British SIPPR/BK Lab Animal Co., Ltd. At the time of implanting, the Colon26 cells in logarithmic growth phase were collected and mixed to 10 million cells/ml. Each mouse was implanted subcutaneously with 100 μl of one million cells. When the tumor grew to about 100 cubic millimeters, animals were randomly divided into groups with 8 animals per group. Drug administration was started (D0).
Mode of administration: intragastric administration, twice a day.
Formulation prescription: 3% dimethylacetamide and 20% hydroxypropyl-β-cyclodextrin. • Administration period and tumor measurement: The administration period was 13 days. The tumor volume was measured, the mice were weighed, and the data were recorded, 3 times per week. The calculation formula of tumor volume (V) is: V=½a×b2 where a and b represent length and width, respectively. The calculation formula of T/C is: T/C (%)=100×ΔT/ΔC. Tumor inhibition rate (%)=1−T/C (%). • Experimental results: The antitumor effect of the compound of Example 15 in Colon26 tumor-bearing mouse model is shown in the following table.
Under the same experimental conditions, the dosage was adjusted. The anti-tumor effect of Example 15 and its optical isomers 18-(1) and 18-(2) in Colon26 tumor-bearing mouse model is shown in the following table: […]

In experiment [2] the target is T1, Human indoleamine 2,3-dioxygenase (IDO) (Homo sapiens, UniProt P14902).
T1 construct: purchased BPS Bioscience Inc
T1 sequence (P14902 whole entry): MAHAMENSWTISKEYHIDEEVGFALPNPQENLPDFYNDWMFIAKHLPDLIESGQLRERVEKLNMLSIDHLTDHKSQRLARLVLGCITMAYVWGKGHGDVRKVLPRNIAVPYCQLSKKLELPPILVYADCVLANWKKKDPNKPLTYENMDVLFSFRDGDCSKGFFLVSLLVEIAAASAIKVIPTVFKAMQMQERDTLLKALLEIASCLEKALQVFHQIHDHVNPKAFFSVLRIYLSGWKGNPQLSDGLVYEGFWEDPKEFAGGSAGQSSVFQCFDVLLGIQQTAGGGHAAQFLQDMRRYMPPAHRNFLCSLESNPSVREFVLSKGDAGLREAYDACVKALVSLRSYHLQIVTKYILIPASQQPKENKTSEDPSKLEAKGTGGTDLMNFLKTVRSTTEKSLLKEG
Nature of the experiment: Enzymatic test for IDO activity inhibition. The format is biochemical. The note with it: 40 nM IDO enzyme, 0.2 mM L-tryptophan, 60 minutes at 30° C. Here is the method:
Human indoleamine 2,3-dioxygenase (IDO) was purchased from BPS Bioscience Inc. The enzymatic reaction of idoleamine 2,3-dioxygenase (IDO) was performed in a 96-well plate with a reaction volume of 20 μL. The reaction conditions were: 40 nM IDO enzyme, 0.2 mM L-tryptophan, 50 mM KPB (pH 6.5) buffer, 20 mM sodium L-L-ascorbate, 10 μM methylene blue, 0.2 mg/mL catalase, different concentrations of compounds containing <1% dimethyl sulfoxide. After reacting for 60 minutes at 30° C., 5 μL of 30% (w/v) trichloroacetic acid (in 50 mM KPB buffer) weres added to each well. The plate was incubated for 30 minutes at 50° C. to hydrolyze N-formyl-kynurenine to kynurenine. 25 μL of 2% (w/v) p-(dimethylamino)benzaldehyde (p-DMBA)/glacial acetic acid solution were added to each well. The absorbance at 490 nm was read on a BioTek Synergy H1 microplate reader […].
The stock solution of the test compound was prepared to 10 mM with dimethyl sulfoxide, diluted with dimethyl sulfoxide to the highest concentration of the test during the experiment, then diluted in 1:3 gradient, and generally diluted to 8 to 10 concentration points. Duplicate wells were set for each concentration point, and one reference compound was included in each experiment. The original data of the absorbance at 490 nm read on a microplate reader were analyzed. The inhibition of IDO enzyme activity was calculated at different concentrations of the test compound. The half-inhibitory concentration IC50 value of the compound was obtained by non-linear fitting analysis of inhibition percentage data by GraphPad Prism software.

Where [3] appears, read: 25 mg/kg intragastric twice a day, D12.

The term IC50 denotes the concentration at which inhibition is half-maximal. `CS(=O)(CCNc1nonc1/C(=N/O)Nc1ccc(F)c(Br)c1)=NS(=O)(=O)C1CC1` (stereo not drawn) [Example 15, (Z)—N-(3-bromo-4-fluorophenyl)-4-((2-(N-(cyclopropylsulfonyl)-S-methylsulfonimidoyl)ethyl)amino)-N′-hydroxy-1,2,5-oxadiazole-3-carboximidamide]: the “Tumor inhibition rate (%) D12” value in experiment [1] (10 mg/kg, D12) is listed as 71.10%. For the same compound, the “Average tumor volume (mm^3 ± SEM) D0” value in experiment [1] (25 mg/kg intragastric twice a day, D0 (start of administration)) came to 95.5 ± 2.0 mm^3. Moreover, in experiment [1] (setting [3]), the “Average tumor volume (mm^3 ± SEM) D12” value is reported as 212.7 ± 28.9 mm^3 and the “T/C (%) D12” value was found to be 5.4%. Also, the “Tumor inhibition rate (%) D12” value in experiment [1] (25 mg/kg intragastric twice a day, D12, 25 mg/kg) is on record as 94.6%. The IC50 in experiment [2] worked out at 27 nM.
